# Reference: patent US5225607A, “Insecticidal ethers” (Imperial Chemical Industries PLC, priority 1985, dated 1993)
# How the values were obtained:
# Type in all cases: in vivo
# Tetranychus urticae = experiment: Insecticidal/acaricidal test, Tetranychus urticae (spider mites - adult), contact; details: 72 h, French bean leaf, 3 days, read-out: grading of mortality, TU
# Outline: (§1)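 Acetone solution diluted in water + 0.01% wetting agent; 500/250/100 ppm. Treat pests and/or host plant/food medium. Read mortality/knockdown day 1–3. Grades: A 80–100% (S. exigua 70–100%), B 50–79% (50–69%), C <50%.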
# Myzus persicae = experiment: Insecticidal test, Myzus persicae (aphids), contact; details: 72 h, Chinese Cabbage leaf, 3 days, read-out: grading of mortality, MP
# Outline: as §1
# Nilaparvata lugens = experiment: Insecticidal test, Nilaparvata lugens (brown planthopper), contact; details: 72 h, Cabbage leaf, 3 days, read-out: grading of mortality, NL
# Outline: as §1
# Musca domestica [1] = experiment: Knockdown test, Musca domestica (houseflies - adults); details: cotton wool/sugar, 4 hours, read-out: grading of knockdown, MD/KD
# Outline: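 Knockdown scores were banded: A 80–100%, B 50–79%, C <50%. Test preparations of 500, 250 or 100 ppm compound were made in acetone, then diluted with water containing 0.01% Lissapol NX, and applied to Musca domestica adults.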
# Musca domestica [2] = experiment: Insecticidal test, Musca domestica (houseflies - adults), contact; details: 24 h, cotton wool/sugar, 1 day, read-out: grading of mortality, MD
# Outline: as §1
# Blattella germanica = experiment: Insecticidal test, Blattella germanica (cockroach nymphs), residual; details: 72 h, plastic pot, 3 days, read-out: grading of mortality, BG
# Outline: as §1
# Heliothis virescens = experiment: whole plant or invertebrate; details: in Gossypium hirsutum, 72 h, read-out: grading of mortality, HV
# Outline: as §1
# Spodoptera exigua = experiment: Insecticidal test, Spodoptera exigua (lesser armyworm), residual; details: 72 h, cotton leaf, 3 days, read-out: grading of mortality, SE
# Procedure: The activity of the Product was determined using a variety of insect and acarine pests. The Product was used in the form of liquid preparations containing 500, 250 or 100 parts per million (ppm) by weight of the Product. The preparations were made by dissolving the Product in acetone and diluting the solutions with water containing 0.01% by weight of a wetting agent sold under the trade name "LISSAPOL" NX until the liquid preparations contained the required concentratio of the Product. "Lissapol" is a Registered Trade Mark.
# The test procedure adopted with regard to each pest was basically the same and comprised supporting a number of the pests on a medium which was usually a host plant or a foodstuff on which the pests feed, and treating either or both the pests and the medium with the preparations. The mortality of the pests was then assessed at periods usually varying from one to three days after the treatment.
# The results of the tests are given in Table IV for each of the Products, at the rate in parts per million given in the second column as a grading of mortality designated as A, B or C wherein A indicates 80-100% mortality or knockdown (70-100% in the case of Spodoptera exigua), B indicates 50-79% mortality or knockdown (50-69% in the case of Spodoptera exigua) and C indicates less than 50% mortality or knockdown.
# In Table IV the pest organism used is designated by a letter code and the pest species, the support medium or food, and the type and duration of test is given in Table III.
# Diabrotica balteata = experiment: Insecticidal test, Diabrotica balteata (rootworm larvae), residual; details: 72 h, filter paper/maize seed, 3 days, read-out: grading of mortality, DB
# Outline: as §1
Structure (SMILES),mortality at 500 ppm (Tetranychus urticae) [%],mortality at 500 ppm (Myzus persicae) [%],mortality at 500 ppm (Nilaparvata lugens) [%],pest or weed control at 500 ppm (Musca domestica [1]) [%],mortality at 500 ppm (Musca domestica [2]) [%],mortality at 500 ppm (Blattella germanica) [%],mortality at 500 ppm (Heliothis virescens) [%],mortality at 500 ppm (Spodoptera exigua) [%],mortality at 500 ppm (Diabrotica balteata) [%],other results
"CCOc1ccc(C(COCc2cccc(Oc3ccccc3)c2)C(F)(F)F)cc1F (centres unmarked) [Compound 14, 1,1,1-Trifluoro-2-(3-fluoro-4-ethoxyphenyl)-3-(3-phenoxybenzyloxy)propane]",–,–,–,–,–,–,–,–,–,mortality at 100 ppm (Tetranychus urticae): < 50%; mortality at 100 ppm (Myzus persicae): 80 to 100%; mortality at 100 ppm (Nilaparvata lugens): 80 to 100%; pest or weed control at 100 ppm (Musca domestica [1]): 80 to 100%; mortality at 100 ppm (Musca domestica [2]): 80 to 100%; mortality at 100 ppm (Blattella germanica): 80 to 100%; mortality at 100 ppm (Heliothis virescens): 80 to 100%; mortality at 100 ppm (Spodoptera exigua): 70 to 100%; mortality at 100 ppm (Diabrotica balteata): 80 to 100%
"Fc1ccc(C(Cl)(COCc2ccc(F)c(Oc3ccccc3)c2)C(F)(F)F)cc1 (centres unmarked) [Compound 51, 1,1,1-Trifluoro-2-chloro-2-(4-fluorophenyl)-3-(3-phenoxy-4-fluorobenzyloxy)propane]",–,–,–,–,–,–,–,–,–,mortality at 100 ppm (Tetranychus urticae): < 50%; mortality at 100 ppm (Myzus persicae): < 50%; mortality at 100 ppm (Nilaparvata lugens): 50 to 79%; pest or weed control at 100 ppm (Musca domestica [1]): < 50%; mortality at 100 ppm (Musca domestica [2]): < 50%; mortality at 100 ppm (Blattella germanica): < 50%; mortality at 100 ppm (Heliothis virescens): 80 to 100%; mortality at 100 ppm (Spodoptera exigua): 70 to 100%; mortality at 100 ppm (Diabrotica balteata): 80 to 100%
"OC(COCc1cccc(Oc2ccc(Cl)cc2)c1)(c1ccc2c(c1)OCO2)C(F)(F)F (centres unmarked) [Compound 129, 1,1,1-Trifluoro-2-(3,4-methylenedioxyphenyl)-3-(3-(4-chlorophenoxy)benzyloxy)propan-2-ol]",< 50,50 to 79,80 to 100,80 to 100,80 to 100,< 50,50 to 79,70 to 100,< 50,–
"FC(F)(F)c1ccc(C(F)(COCc2cccc(Oc3ccccc3)c2)C(F)(F)F)cc1 (centres unmarked) [Compound 84, 1,1,1,2-Tetrafluoro-2-(4-trifluoromethylphenyl)-3-(3-phenoxybenzyloxy)propane]",80 to 100,80 to 100,80 to 100,80 to 100,80 to 100,80 to 100,80 to 100,70 to 100,80 to 100,–
"Cc1ccc(C(COCc2cccc(Oc3ccccc3)c2)C(F)(F)F)cc1 (centres unmarked) [Compound 22, 1,1,1-Trifluoro-2-(4-methylphenyl)-3-(3-phenoxybenzyloxy)propane]",< 50,–,80 to 100,80 to 100,80 to 100,80 to 100,50 to 79,70 to 100,80 to 100,–
"COCc1ccc(C(COCc2cccc(Oc3ccc(Cl)cc3)c2)C(F)(F)F)cc1 (centres unmarked) [Compound 23, 1,1,1-Trifluoro-2-(4-methoxymethylphenyl)-3-(3-(4-chlorophenoxy)benzyloxy)propane]",< 50,50 to 79,80 to 100,80 to 100,50 to 79,< 50,< 50,70 to 100,80 to 100,–
"CC(C)(C)c1ccc(C(COCc2ccc(F)c(Oc3ccccc3)c2)C(F)(F)F)cc1 (centres unmarked) [Compound 21, 1,1,1-Trifluoro-2-(4-t-butylphenyl)-3-(3-phenoxy-4-fluorobenzyloxy)propane]",80 to 100,80 to 100,< 50,80 to 100,80 to 100,50 to 79,80 to 100,70 to 100,80 to 100,–
"Fc1ccc(COCC(F)(c2ccc(Br)cc2)C(F)(F)F)cc1Oc1ccccc1 (centres unmarked) [Compound 83, 1,1,1,2-Tetrafluoro-2-(4-bromophenyl)-3-(3-phenoxy-4-fluorobenzyloxy)propane]",< 50,80 to 100,80 to 100,80 to 100,80 to 100,80 to 100,80 to 100,70 to 100,80 to 100,–
CCOc1ccc(C(COC(c2cccc(Oc3ccccc3)c2)C(F)(F)F)C(F)(F)F)cc1 (racemic) [Compound 264],50 to 79,< 50,–,< 50,< 50,< 50,< 50,70 to 100,< 50,–
"Fc1ccc(COCC(Cl)(c2ccc(Cl)cc2)C(F)(F)F)cc1Oc1ccccc1 (centres unmarked) [Compound 50, 1,1,1-Trifluoro-2-chloro-2-(4-chlorophenyl)-3-(3-phenoxy-4-fluorobenzyloxy)propane]",< 50,80 to 100,80 to 100,80 to 100,80 to 100,< 50,80 to 100,–,80 to 100,–
"CCCc1ccc(C(COCc2ccc(F)c(Oc3ccccc3)c2)C(F)(F)F)cc1 (centres unmarked) [Compound 20, 1,1,1-Trifluoro-2-(4-n-propylphenyl)-3-(3-phenoxy-4-fluorobenzyloxy)propane]",–,–,–,–,–,–,–,–,–,mortality at 100 ppm (Tetranychus urticae): 80 to 100%; mortality at 100 ppm (Myzus persicae): 80 to 100%; mortality at 100 ppm (Nilaparvata lugens): 80 to 100%; pest or weed control at 100 ppm (Musca domestica [1]): 80 to 100%; mortality at 100 ppm (Musca domestica [2]): 80 to 100%; mortality at 100 ppm (Blattella germanica): 80 to 100%; mortality at 100 ppm (Heliothis virescens): 80 to 100%; mortality at 100 ppm (Diabrotica balteata): 80 to 100%
"CCOc1ccc(C(O)(COCc2ccc(F)c(Oc3ccc(Cl)cc3)c2)C(F)(F)F)cc1 (centres unmarked) [Compound 117, 1,1,1-Trifluoro-2-(4-ethoxyphenyl)-3-(3-(4-chlorophenoxy)-4-fluorobenzyloxy)propan-2-ol]",< 50,< 50,< 50,80 to 100,50 to 79,< 50,< 50,–,< 50,–
"CCOc1ccc(C(F)(COCc2cccc(Oc3ccc(Cl)cc3)c2)C(F)(F)F)cc1 (centres unmarked) [Compound 79, 1,1,1,2-Tetrafluoro-2-(4-ethoxyphenyl)-3-(3-(4-chlorophenoxy)benzyloxy)propane]",–,–,–,–,–,–,–,–,–,mortality at 250 ppm (Tetranychus urticae): < 50%; mortality at 250 ppm (Myzus persicae): < 50%; mortality at 250 ppm (Nilaparvata lugens): 80 to 100%; pest or weed control at 250 ppm (Musca domestica [1]): 80 to 100%; mortality at 250 ppm (Musca domestica [2]): 80 to 100%; mortality at 250 ppm (Blattella germanica): 80 to 100%; mortality at 250 ppm (Heliothis virescens): 80 to 100%; mortality at 250 ppm (Diabrotica balteata): < 50%
"CCOc1ccc(C(COCc2cccc(Oc3ccc(Cl)cc3)c2)C(F)(F)F)cc1 (centres unmarked) [Compound 3, 1,1,1-Trifluoro-2-(4-ethoxyphenyl)-3-(3-(4-chlorophenoxy)benzyloxy)propane]",–,–,–,–,–,–,–,–,–,mortality at 250 ppm (Tetranychus urticae): < 50%; mortality at 250 ppm (Myzus persicae): 80 to 100%; mortality at 250 ppm (Nilaparvata lugens): 80 to 100%; pest or weed control at 250 ppm (Musca domestica [1]): 80 to 100%; mortality at 250 ppm (Musca domestica [2]): 80 to 100%; mortality at 250 ppm (Blattella germanica): 80 to 100%; mortality at 250 ppm (Heliothis virescens): < 50%; mortality at 250 ppm (Diabrotica balteata): 80 to 100%
